Data: paper PMC11696576, “Next generation thiazolyl ketone inhibitors of cytosolic phospholipase A2 α for targeted cancer therapy” (Nature Communications, 2025)
Where “and” joins values, the source holds several entries; their conditions need not be identical. Identical values can stand only once.

Legend:
Jurkat E6.1 cells [1] = experiment: cell viability, CTG assay, Jurkat E6.1; type: cell-based, human; conditions: for viability signal, raw values: Figure 6e
Description: (§1) Data are the mean ± stdev of 3 biological replicates. […] Data are the mean ± stdev of 3 biological replicates.
Bjørn Tore Gjertsen (University of Bergen, Norway). […] The cell lines were not authenticated.

Jurkat E6.1 cells [2] = experiment: intracellular ROS, ROS-red staining and flow cytometry, Jurkat E6.1; type: cell-based, human; design: ROS Negative Cells / ROS Negative Cells (Figure S9 a) / ROS Negative Cells (Figure S9c): unit not given here; conditions: AA 20 µM; rep1, rep2
Protocol: as §1
(§2) Rather, when combined with AVX420, exogenous AA augmented cell death (Fig. 6e). […] The response occurred within 1 h, peaked at 8–12 h, and preceded the loss of cell viability (Fig. S9a, b).
(§3) After treatment, cells were stained with cellular ROS Assay Kit (Cat. No. ab186029; Abcam, Cambridge, United Kingdom) following the manufacturer’s instructions, and ROS-positive cells were quantified by flow cytometry using either the NovoCyte flow cytometer, and Novoexpress Software v1.5.0 from Agilent Technologies (Santa Clara, USA) or the CytoFLEX flow cytometer and CytExpert analysis software v 2.5 from Beckman Coulter (California, United States). An example showing the gating strategy used to assess ROS-Red staining is found in Fig. S9d.

CCRF-CEM cells [3] = experiment: cell viability, CTG assay, CCRF-CEM; conditions: for viability signal, raw values: Figure 6e
Protocol: Data are the mean ± stdev of 3 biological replicates. c Viability of healthy T-cells measured by propidium iodide (PI) exclusion. Data are the mean ± stdev of 8 biological replicates for 1–16 µM AVX420, 5 for 32 µM AVX420 and 2 for 0.5 µM Staurosporine (Stau). d Cell viability measured by CTG assay in cells preincubated with 2.5 mM glutathione (GSH) or 2.5 mM N-acetyl cysteine (NAC) for 30 min before addition of 0.5 or 1 µM AVX420, 0.06 µM RSL-3, or 0.06 µM ML-210 for 24 h. Data are the mean ± stdev of 3 biological replicates. P-values were determined by one-way ANOVA with Dunnett’s correction for multiple testing and **** indicates P < 0.0001. e Cell viability measured by CTG assay. CCRF-CEM or Jurkat cells were co-treated with 0.5 µM AVX420 and either arachidonic acid (AA) at concentrations ranging from 1 to 100 µM or a mixture of 9 eicosanoids: 6-keto prostaglandin F1α, Thromboxane B2, prostaglandin F2α, prostaglandin E2, prostaglandin D2, 12(S)-HHTrE, 15(S)-HETE,12(S)-HETE, 5(S)-HETE at a final concentration of 2 ng/mL each (EIC-mix) for 24 h. Data are the mean ± stdev of 3 biological replicates. P-values were determined by two-way ANOVA with Sidak’s correction for multiple comparisons. f Proportion of intracellular ROS-positive cells measured by ROS-red staining and flow cytometry. Cells were treated with indicated concentrations of AVX420 (µM), 1 mM H2O2, 1 µM RSL-3, or 1 µM doxorubicin (dox) for 4 h. Data are the mean ± stdev of 3 biological replicates. g Intracellular ROS measurements in CCRF-CEM cells treated with AVX420 (0.5 µM), AVX002 (8 µM), or AACOCF3 (8 µM) for 4 h.
All cell lines were confirmed to be free of mycoplasma contamination. The cell lines were not authenticated. MV-4-11 were cultured in Iscove’s Modified Dulbecco’s Medium (Sigma, I3390). CCRF-CEM, Jurkat E6.1, and HL-60 cells were cultured in RPMI 1640 Medium RPMI-1640 medium (Sigma, R5886).

whole blood = experiment: eicosanoid release from LPS-stimulated whole blood; type: cell-based, human; design: LTB4 / 5-HETE / 11,12-EET / 12-HETE: unit not given here; conditions: for 15-HETE level, whole blood / PGE2 level, whole blood / TxB2 level, whole blood: individual replicate
Description: In whole blood, bacterial lipopolysaccharide (LPS) stimulated the release of PGE2, thromboxane B2 (TXB2), and 15-hydroxyeicosatetraenoic acid (HETE). […] The levels of leukotriene B4 (LTB4), 12-HETE, 5-HETE and 11,12-epoxyeicosatrienoic acid (EET) were not affected by LPS stimulation but increased when exogenous AA was included, irrespective of the presence of GK420 (Fig. S1a).
Fig. 3 Ex vivo suppression of eicosanoid production by GK420. a Eicosanoid levels (pmol/mL) in the plasma of whole blood pretreated with vehicle (DMSO), 3, 10 or 30 µM GK420,) 10 µM arachidonyl trifluoromethyl ketone (ATK), or 1 μM indomethacin (Indo) before stimulation with 1 µg/mL LPS for 24 h. […] All box and whisker plots show the mean (center line), stdev (box), and min and max values (whiskers) from 4 biological replicates. P-values were determined using RM-one way ANOVA with Dunnett’s correction for multiple comparisons.
Aliquots of 0.4 mL of heparinized whole blood were mixed with 1.6 mL of serum-free RPMI cultivation medium with- or without indomethacin (# I7378, Sigma-Aldrich), GK420, or arachidonyl trifluoromethyl ketone (ATK) (Cayman #62120), prior to the addition of lipopolysaccharides (LPS) (1 μg/mL) to activate the cPLA2α enzyme (LPS was from E. coli 026:B6 γ-irradiated, #L2654, Sigma-Aldrich). Exogenous arachidonic acid (5–10 µM) (#3555, Sigma-Aldrich) was added after 23.5 h, for the final 30 mins of the 24 h stimulation. Following treatment (24 h, 37 °C, 5% CO2), the diluted blood was centrifuged (5992 × g for 10 min at 4 °C) to isolate the plasma from the cell fraction. Plasma samples were stored at −80 °C until analysis. Samples were analyzed at the Lipid Maps Consortium, UCSD according to the standard methods. 200 µL of sample was subjected to solid phase extraction of the eicosanoids using the StrataX solid phase extraction columns from Phenomenex and analyzed by UHPLC-MS/MS using full standards mix.

CCRF-CEM cells [4] = experiment: intracellular ROS, ROS-red staining and flow cytometry, CCRF-CEM; type: cell-based, human; conditions: CCRF-CEM, 8 µM, 4 h
Protocol: as §1, §2, §3
Figure S9. Intracellular ROS accumulation and cell death. a. Time dependency of the in-crease in iROS following treatment with AVX420 in CCRF-CEM cells as measured by ROS-red stain-ing. Data are the mean ±stdev from ≥2 biological replicates b. […]
±stdev of ≥2 biological replicates c. intracellular ROS measurements in CCRF-CEM cells treated with 0.5 µM AVX420 in the presence of 20 µM arachidonic acid (AA) or 5 µM liproxstatin (Lip) for 4 hours. Data are the mean ± stdev of 2 biological replicates. d. […]
analysis of ROS Red staining by flow cytometry. (i) Gating of live cells using FSC-H versus SSC-H.
(ii) Gating based on ROS Deep Red staining under control conditions and after treatment with (iii) […]
(1 picture or pasted object on this page, not shown here)

isolated human PBMCs = experiment: eicosanoid release from A23187-stimulated PBMCs (ELISA); type: cell-based; design: 6-Keto PGF1a / 12-HETE: unit not given here; conditions: 5 µM; for LTB4 level, PBMCs / PGE2 level, PBMCs / TxB2 level, PBMCs: A23187, individual replicate
Protocol: In PBMCs, the calcium ionophore A23187 stimulated the release of PGE2, TXB2, LTB4, 6-keto prostaglandin F1α (PGF1α), and 12-HETE.
PBMCs were isolated from buffy coats using Lymphoprep as described by the manufacturer ([…] Technologies, Vancouver, Canada). Red blood cells were lysed and removed using RBC lysis buffer (Roche, Basel, Switzerland) and the remaining cells were resuspended in 10 mL of RPMI-1640 supplemented with 5% FBS. The TC20 automated cell counter (BIO-RAD, Hercules, California, USA) was used to count the number of cells and check the viability by staining with trypan blue (0.4%) (NanoEnTek, Waltham, MA, USA). For experiments, 5 × 10^5 cells were seeded in 0.5 mL in 24 well plates with RPMI medium supplemented with 5% FBS, 0.3 mg/mL glutamine, and 0.1 mg/mL gentamicin. Cells were preincubated with inhibitors for 2 h before incubating with 30 µM Ca^2+ ionophore A23187 for 15 min to activate cPLA2α. After incubation, the supernatant was obtained by centrifugation at 5992 × g for 10 min at 4° and stored at −80 °C until assayed for PGE2, LTB4, TxB2, 6-Keto PGF1α, and 12S-HETE using enzyme-linked immunosorbent assays (ELISAs) (Cayman #514435, Cayman #10009292, Cayman #501020, Cayman #15210, and Enzo Lifesciences #ADI-900-050). After an overnight hybridization, the enzymatic conversion of substrate was read at OD420 nm using a Cytation 5 multimode platereader (Biotek Instruments, Winooski, VT, USA). Standard curves fit using 4-parameter logistic regression in myassays.com were used to calculate eicosanoid concentrations.

## CCCCC/C=C\C/C=C\C/C=C\C/C=C\CCCC(=O)O [AA]
Jurkat E6.1 cells [1]; Jurkat E6.1, AA-1, CTRL (no AVX420)
  viability signal, raw values: 945477,333333333 and 910583,466666667 and 794162,5
Jurkat E6.1 cells [1]; Jurkat E6.1, AA-5, CTRL (no AVX420)
  viability signal, raw values: 896908,333333333 and 842500,133333333 and 777643
Jurkat E6.1 cells [1]; Jurkat E6.1, AA-10, CTRL (no AVX420)
  viability signal, raw values: 858625 and 837920,133333333 and 768078,5
Jurkat E6.1 cells [1]; Jurkat E6.1, AA-20, CTRL (no AVX420)
  viability signal, raw values: 835050 and 861305,466666667 and 719180
Jurkat E6.1 cells [2]
  ROS Negative Cells (Figure S9c): 97 and 95
  ROS Positive Cells (Figure S9c): 3 and 5
CCRF-CEM cells [3]; AA-1, CTRL (no AVX420)
  viability signal, raw values: 846644,033333333 and 824265,666666667 and 673546,5
CCRF-CEM cells [3]; AA-5, CTRL (no AVX420)
  viability signal, raw values: 927085,7 and 753657,333333333 and 655816,5
CCRF-CEM cells [3]; AA-10, CTRL (no AVX420)
  viability signal, raw values: 862846,7 and 802148,333333333 and 667006,5
CCRF-CEM cells [3]; AA-20, CTRL (no AVX420)
  viability signal, raw values: 903682,366666667 and 709873,666666667 and 638998,5
CCRF-CEM cells [3]; AA-100, CTRL (no AVX420)
  viability signal, raw values: 925589,000333333 and 600588 and 592437,5

## CCCCC/C=C\C/C=C\C/C=C\C/C=C\CCCC(=O)C(F)(F)F [ATK, arachidonyl trifluoromethyl ketone]
Whole blood; 10 uM + LPS + AA
  5-HETE: 62.15 and 48.84 and 43.16 and 63.64
  11,12-EET: 12.43 and 12.11 and 11.23 and 10.37
  12-HETE: 131.5 and 102.1 and 99.1 and 71.1
  LTB4: 0.7 and 0.6 and 0.8 and 0.5
  15-HETE level, whole blood: 74.26 pmol/mL and 68.85 pmol/mL and 74.36 pmol/mL and 63.52 pmol/mL
  PGE2 level, whole blood: 16.3 pmol/mL and 19.3 pmol/mL and 11.3 pmol/mL and 11.2 pmol/mL
  TxB2 level, whole blood: 13.1 pmol/mL and 35.6 pmol/mL and 22.8 pmol/mL and 21.1 pmol/mL
Whole blood; 10 uM + LPS
  15-HETE level, whole blood: 0.26 pmol/mL and 1.13 pmol/mL and 0.31 pmol/mL and 0.48 pmol/mL
  PGE2 level, whole blood: 0.1 pmol/mL and 2.4 pmol/mL and 0.5 pmol/mL and 1.1 pmol/mL
  TxB2 level, whole blood: 1.2 pmol/mL and 9.9 pmol/mL and 2.1 pmol/mL and 3.4 pmol/mL
CCRF-CEM cells [4]
  intracellular ROS (iROS): increased iROS

## Cc1ccc(-c2cc(C(F)(F)F)nn2-c2ccc(S(N)(=O)=O)cc2)cc1 [Celecoxib, celecoxib, reference compound]
Isolated human PBMCs
  LTB4 level, PBMCs: 120.7 pg/mL and 156.9 pg/mL and 348.2 pg/mL and 111.7 pg/mL
  PGE2 level, PBMCs: 146.1 pg/mL and 36.8 pg/mL and 25.1 pg/mL and 59.9 pg/mL
  TxB2 level, PBMCs: 2358.3 pg/mL and 690.2 pg/mL and 212.9 pg/mL and 1753.1 pg/mL

## COc1ccc2c(c1)c(CC(=O)O)c(C)n2C(=O)c1ccc(Cl)cc1 [Indo, indomethacin]
Whole blood; 1 uM + LPS + AA
  5-HETE: 68.97 and 43.93 and 45.12 and 44.17
  11,12-EET: 9.56 and 11.87 and 10.26 and 11.6
  12-HETE: 64.2 and 109.5 and 89.5 and 60.3
  LTB4: 0.4 and 0.7 and 0.5
  15-HETE level, whole blood: 61.7 pmol/mL and 75.64 pmol/mL and 71.47 pmol/mL and 74.74 pmol/mL
  PGE2 level, whole blood: 11.3 pmol/mL and 12.8 pmol/mL and 10.1 pmol/mL and 11.1 pmol/mL
  TxB2 level, whole blood: 1.2 pmol/ml (2×) and 1.6 pmol/ml and 1 pmol/ml
Whole blood; 1 uM + LPS
  15-HETE level, whole blood: 0.16 pmol/mL and 0.77 pmol/mL and 0.18 pmol/mL and 0.15 pmol/mL
  PGE2 level, whole blood: 0.05 pmol/mL
  TxB2 level, whole blood: 0.05 pmol/ml (3×) and 0.1 pmol/ml
Whole blood; whole blood, LPS, in the absence and presence of exogenous free AA
  production of PGE2 and TXB2: suppressed the production

## CC(Cc1ccc(O)c(O)c1)C(C)Cc1ccc(O)c(O)c1 (stereo not shown) [NDGA, nordihydroguaiaretic acid, reference compound]
Isolated human PBMCs
  LTB4 level, PBMCs: 125.8 pg/mL and 134 pg/mL and 192.1 pg/mL and 116.5 pg/mL
  PGE2 level, PBMCs: 307.5 pg/mL and 191.3 pg/mL and 70.7 pg/mL and 334.8 pg/mL
  TxB2 level, PBMCs: 14617 pg/mL and 11007 pg/mL and 1627.4 pg/mL and 14685.3 pg/mL
Isolated human PBMCs; A23187 stimulated
  6-Keto PGF1a: 23.4 and 36.1
  12-HETE: 69724.1 and 75249.5 and 44247.8

## COc1ccc2cc([C@H](C)C(=O)O)ccc2c1 [Naproxen, naproxen, reference compound]
Isolated human PBMCs
  LTB4 level, PBMCs: 580.9 pg/mL and 678 pg/mL and 1105.1 pg/mL and 392.2 pg/mL
  PGE2 level, PBMCs: 99.6 pg/mL and 53.1 pg/mL and 27.7 pg/mL and 49.6 pg/mL
  TxB2 level, PBMCs: 2252.6 pg/mL and 716 pg/mL and 281.3 pg/mL and 1975.1 pg/mL

## COC(=O)c1ccc([C@@H]2c3[nH]c4ccccc4c3C[C@@H](C(=O)OC)N2C(=O)CCl)cc1 [RSL-3]
Jurkat E6.1 cells [1]; Jurkat cells, 0.06 µM, VEH
  cell viability (Control = 100): 40 and 34 and 26
CCRF-CEM cells [3]; 0.06 µM, VEH
  cell viability (Control = 100): 29 and 32 and 36
